Results taken from patent US10449230B2, “Polymyxin derived cell penetrating scaffolds” (The Regents of the University of California, priority 2016, dated 2019).
Numbered stars: 1 amine (or outer) side, 2 acyl side, 3 side chain; on linkers, the order of the positions; unused ones are H or OH. Bridge positions count the residues as written; N and C are the ends. Square brackets hold non-standard residues; d marks the D form. Peptide text beside a SMILES is read from it. * marks the point of attachment. Biotin = O=C1N[C@H]2[C@H](CS[C@H]2CCCCC(=O)*)N1; X1 = O=C(CCCc1cn(CCOCCOCCOCCN[*:1])nn1)[*:2]; Agb = N=C(N)NCC[C@H](N)C(=O)O; Dab = NCC[C@H](N)C(=O)O

Assays:
CHO-K1 cells [1] = settings: CHO-K1, 72 h, concentrations as high as 0.5 μM, FIG. 3A
Description: (§1) Cell titer blue was added and incubated an additional 4 hours. Cell viability was calculated by measuring the fluorescence intensity at 560/590.

HEK-293 cells = settings: HEK-293, 72 h, concentrations as high as 0.5 μM, FIG. 3B
Description: as §1

CHO-K1 cells [2] = assay: Cellular uptake of transporter-ST-PE-Cy5 conjugates, flow cytometry (MFI); assay type: cell-based, Chinese hamster; settings: for Uptake of ST-PE-Cy5 incubated with transporter lacking the biotin moiety: CHO-K1, 37° C., 1 h, FIG. 4
Description: The polymyxin derivatives (2.5 μM in PBS) were incubated with ST-PE-Cy5 (0.5 μM in PBS) for 20 min at ambient temperature then diluted with F-12 cell culture medium to give final conjugate solutions.
Cells were plated onto 24-well plates (100 000 cells/well) and grown for 24 h to about 80% confluence. Cells were washed with PBS and incubated with 300 μL of the corresponding conjugate for 1 h at 37° C. under an atmosphere of 5% CO2. Cells were washed twice with PBS, detached with 50 μL of trypsin-EDTA for uptake studies or 100 μL Versene (EDTA) for binding studies, diluted with PBS containing 0.1% BSA, and analyzed by FACS. Cellular uptake was quantified by the mean fluorescence intensity; raw data was interpreted by using FlowJo v8.8.6.
Wild type CHO-K1 cells were incubated with the carrier-ST-PE-Cy5 conjugate for 1 h at 37° C., detached with trypsin/EDTA, and analyzed by flow cytometry (see, e.g., H. O'Dowd, B. Kim, P. Margolis, W. Wang, C. Wu, S. L. Lopez and J. Blais, Tetrahedron Lett., 2007, 48, 2003-2005). […] Cellular uptake of GPMB and PMB conjugated to ST-PE-Cy5 was measured in CHO-K1, HEK-293, and HEP-3B cells. The cells were incubated with conjugate (5 nM) at 37° C. for 1 h. Mean fluorescence intensity was measured by flow cytometry. The background signal from untreated cells was subtracted (FIG. 2).
The mixtures were then added to CHO-K1 cells and incubated at 37° C. for 1 h. Mean fluorescence intensity was measured by flow cytometry and the background signal from untreated cells was subtracted.

CHO-K1 cells [3] = settings: liposomes with 10 mol % carrier, 0.30, 0.50 or 0.70 μg/mL, 1 h at 37° C., FIG. 10
Description: A mixture (30 mg total) of DOPC, DOPE, and cholesterol (73:11:16) was dissolved in chloroform to a final volume of 1 mL and evaporated in a round flask and further dried under high vacuum overnight to form a thin lipid layer. The resulting film was hydrated for 15 min at 37° C. with 1 mL of PBS containing 100 μM Cy5. The mixture was sonicated for 30 s, subjected to six freeze/thaw cycles using a dry ice/acetone bath and a water bath at 37° C. Lastly, the suspension was extruded 17 times through a polycarbonate membrane (pore size 100 nm) at room temperature. Non-encapsulated dye was removed by gravitational gel filtration (Sephadex G-50). Lipid concentration was determined adapting the Stewart method. […] Unincorporated PMB or GPMB was removed via centrifuge gel filtration (Sephadex G-50) (see, e.g., D. W. Fry, J. C. White and I. D. Goldman, Anal. Biochem., 1978, 90, 809-815).
To examine the significance of the cyclic peptide as a delivery module, rather than the lipophilic tail, and the versatility of PMB and GPMB as transporters, liposomes containing the fluorescent Cy5 dye were mixed with 10 mol % PMB or GPMB. Uptake was evaluated using flow cytometry and the size and zeta potential of the liposomes were measured using dynamic light scattering (DLS) and are shown in Table 1 below. […]

CHO-K1 cells [4] = assay: Cytoplasmic delivery of streptavidin-saporin, CellTiter-Blue viability; assay type: cell-based, Chinese hamster; settings: CHO-K1, four days at 37° C., FIG. 8
Description: The biotinylated transporters were incubated with ST-Sap in a 5:1 molar ratio for 20 min at ambient temperature then diluted with F-12 cell culture medium to give final conjugate solutions. CHO-K1 and pgsA cells were incubated with 100 μL of the corresponding conjugate for 4 days at 37° C. under an atmosphere of 5% CO2. CellTiter-Blue (20 μL) was added to the medium and incubated for an additional 4 h to measure viability.
The ability of bPMB and bGPMB to deliver cargo to the cytosol was evaluated by conjugating the transporter to streptavidin-saporin (ST-SAP) and incubating the conjugate with CHO-K1 or pgsA cells at various concentrations. CHO-K1 cells were incubated with transporter-streptavidin-saporin conjugates at 37° C.
Saporin (no streptavidin) was incubated with bPMB or bGPMB for 20 min then diluted to final saporin concentrations and added to CHO-K1 cells. After four days, the number of viable cells was determined using CellTiter-Blue assay and the fluorescence intensity at was measured at 560/590 (FIG. 9A). pgsA cells were incubated with transporter-streptavidin-saporin conjugates at 37° C. After four days, the number of viable cells was determined using CellTiter-Blue and fluorescence intensity was measured at 560/590 (FIG. 9B).

| Molecule | Cytotoxicity (Cell-Titer Blue) (CHO-K1 cells [1]) | Cytotoxicity (Cell-Titer Blue) (HEK-293 cells) | Uptake of ST-PE-Cy5 incubated with transporter lacking the biotin moiety (CHO-K1 cells [2]) | Delivery of cargo containing liposomes into wild-type CHO cells (CHO-K1 cells [3]) | further results |
| --- | --- | --- | --- | --- | --- |
| CC(C)C[C@@H]1NC(=O)[C@@H](Cc2ccccc2)NC(=O)[C@H](CCNC(=N)N)NC(=O)[C@@H](NC(=O)[C@H](CCNC(=N)N)NC(=O)[C@@H](NC(=O)[C@H](CCNC(=N)N)NC(=O)CCCc2cn(CCOCCOCCOCCNC(=O)CCCC[C@@H]3SC[C@@H]4NC(=O)N[C@@H]43)nn2)[C@@H](C)O)CCNC(=O)[C@H]([C@@H](C)O)NC(=O)[C@H](CCNC(=N)N)NC(=O)[C@H](CCNC(=N)N)NC1=O [bGPMB, biotinylated guanidinylated polymyxin B] (Biotin-[X1][Agb]T[Agb][Dab][Agb][dF]L[Agb][Agb]T; lactam 5-C) | no cytotoxicity | no cytotoxicity |  |  |  |
| CC(C)C[C@@H]1NC(=O)[C@@H](Cc2ccccc2)NC(=O)[C@H](CCN)NC(=O)[C@@H](NC(=O)[C@H](CCN)NC(=O)[C@@H](NC(=O)[C@H](CCN)NC(=O)CCCc2cn(CCOCCOCCOCCNC(=O)CCCC[C@@H]3SC[C@@H]4NC(=O)N[C@@H]43)nn2)[C@@H](C)O)CCNC(=O)[C@H]([C@@H](C)O)NC(=O)[C@H](CCN)NC(=O)[C@H](CCN)NC1=O [bPMB, biotinylated polymyxin B] (Biotin-[X1][Dab]T[Dab][Dab][Dab][dF]L[Dab][Dab]T; lactam 5-C) | no cytotoxicity | no cytotoxicity |  |  |  |
| Polymyxin B [PMB, reference compound] |  |  | No enhanced uptake | enhance delivery |  |
| Octaarginine [bArg8] |  |  |  |  | Cellular uptake of ST-PE-Cy5 conjugate compared with bPMB and bGPMB (CHO-K1 cells [2]; CHO-K1, 1 h at 37° C., MFI, FIG. 1A): approximately three-fold higher uptake; LD50 of transporter-streptavidin-saporin conjugate (CHO-K1 cells [4]): 3.1 nM |
| guanidinylated polymyxin B [GPMB] |  |  | No enhanced uptake | enhance delivery |  |
